According to publication PMC10812672, “Short Antimicrobial Peptide Derived from the Venom Gland Transcriptome of Pamphobeteus verdolaga Increases Gentamicin Susceptibility of Multidrug-Resistant Klebsiella pneumoniae” (Antibiotics, 2023):
Ends that are not written are not given here.

Tests used:
[1] = tested on: human red blood cells (hRBCs); assay: Hemolytic activity; format: cell-based
Protocol: The cytotoxicity of PvAMP66 was assessed in vitro against human red blood cells (hRBCs) and human peripheral blood mononuclear cells (hPBMCs) using concentrations of 1.56–200 µM. At the highest concentration, PvAMP66 induced 60% hemolysis in human erythrocytes (Figure 3a), and a decrease in viability of approximately 40% in the hPBMCs (Figure 3b). […] Ratios between CC50 or HC50, and the IC50 values registered for the bacterial strains, indicate that PvAMP66 has higher selectivity for interacting with prokaryotic membranes (Table 4).
Human red blood cells (hRBCs) were obtained from the Blood Bank of the School of Microbiology of the University of Antioquia in Medellín, Colombia. Ten mL of hRBCs were diluted in 10 mL of PSB pH 7.20, mixed by inversion, and centrifuged five times at 4 °C, 1000× g for 10 min (Universal 32 R, Hettich Group, Kirchlengern, Westphalia, Germany). […] Then, the supernatant was transferred to 96-well flat bottom culture plates without transferring of the RBC pellet, and hemoglobin release was measured at 420 nm (Multiskan SkyHigh, ThermoFisher Scientific, Waltham, MA, USA). All peptides were evaluated in three independent assays. The hemolysis percentage was calculated as follows: Hemolysis %=AbsPEPTIDE−Median AbsPBS/Median AbsTRITON−Median AbsPBS×100

[2] = tested on: Gram-positive and Gram-negative bacteria representative of the ESKAPE group; format: cell-based; settings: average over Gram-positive and Gram-negative ATCC strains of the ESKAPE group
Protocol: (§1) The nine AMPs identified in the initial screening were evaluated at concentrations between 1.56–200 µM, against E. coli ATCC® 25922, S. aureus ATCC® 29213, E. faecalis ATCC® 49532, P. aeruginosa ATCC® 9027, and K. pneumoniae ATCC® BAA-1705 (Supplementary Figures S2–S6). […] Only PvAMP66 and PvAMP172 reached the MBC for S. aureus at 50 µM and 100 µM, respectively (Table 2).
The evaluation of the antimicrobial activity of the peptides was conducted using the CLSI’s broth microdilution method for bacterial susceptibility testing. For the screening phase, peptides were evaluated at a single 30 μM concentration, in triplicate and in three independent assays, against the E. coli ATCC® 8739, E. coli ATCC® 25922, S. aureus ATCC® 6538, or S. aureus ATCC® 29213 reference USP and CLSI strains. […] Following this, the bacteria were suspended in Mueller-Hinton broth up to a concentration of approximately 1.50 × 10^8 CFU/mL, as measured by optical density at 600 nm between 0.06 to 0.11 (0.5 McFarland standard), in a Multiskan SkyHigh spectrophotometer (ThermoFisher Scientific, Waltham, MA, USA). […] The plate was incubated for 24 h at 37 °C (BE 500, Memmert GmbH, Büchenbach, Germany) and optical density was measured at 600 nm in a Multiskan SkyHigh spectrophotometer (ThermoFisher Scientific, Waltham, MI, USA). […]

S. aureus ATCC® 29213 = format: cell-based, Staphylococcus aureus
Protocol: as §1
The evaluation of the antimicrobial activity of the peptides was conducted using the CLSI’s broth microdilution method for bacterial susceptibility testing. For the screening phase, peptides were evaluated at a single 30 μM concentration, in triplicate and in three independent assays, against the E. coli ATCC® 8739, E. coli ATCC® 25922, S. aureus ATCC® 6538, or S. aureus ATCC® 29213 reference USP and CLSI strains. For the determination of MIC, MBC, or IC50, peptides or antibiotics were evaluated in concentrations between 1.56–200 µM. These evaluations were conducted in triplicate and in three independent assays, against the E. coli ATCC® 25922, S. aureus ATCC® 29213, E. faecalis ATCC® 49532, P. aeruginosa ATCC® 9027, and K. pneumoniae ATCC® BAA-1705, or the clinically isolated MDR strain. In detail, 1 mL of a glycerol stock solution of the ATCC® or clinically isolated bacterial strain was added to 9 mL of Mueller-Hinton Broth and incubated for 18 h, 180 rpm and 37 °C (Incubator 1000, Heidolph Instruments, Schwabach, Germany). After the incubation, 1 mL of the previous solution was transferred to a new recipient containing 9 mL of fresh Mueller-Hinton broth and incubated for 4 h, 180 rpm and 37 °C (Incubator 1000, Heidolph Instruments, Schwabach, Germany). During the second incubation, the peptides or the antibiotics were dissolved in PBS pH 7.20 in concentrations between 19.53–2500 µM (MC5 Micro Balance, Sartorius AG, Göttingen, Germany). An amount of 10 µL of either peptide or antibiotic was dispensed in triplicate in 96-well flat bottom culture plates, along with 10 µL of PBS (Negative activity control), BTM-P1 (Positive activity control), or 10 µL of Mueller-Hinton broth (Blank); then, 110 µL of Mueller-Hinton broth was poured in all wells. Following this, the bacteria were suspended in Mueller-Hinton broth up to a concentration of approximately 1.50 × 10^8 CFU/mL, as measured by optical density at 600 nm between 0.06 to 0.11 (0.5 McFarland standard), in a Multiskan SkyHigh spectrophotometer (ThermoFisher Scientific, Waltham, MA, USA). Amounts of 5 µL of the 1.50 × 10^8 CFU/mL suspension were added to each well (except for the blank) for a final well concentration of approximately 6 × 10^6 CFU/mL. The plate was incubated for 24 h at 37 °C (BE 500, Memmert GmbH, Büchenbach, Germany) and optical density was measured at 600 nm in a Multiskan SkyHigh spectrophotometer (ThermoFisher Scientific, Waltham, MI, USA). Following the measurement of optical density, plates were visually inspected to determine the MIC. Subsequently, 100 µL of the concentration associated to the MIC and 100 µL of the next higher concentration were added to Petri dishes containing Mueller-Hinton Agar. The dishes were then incubated for 24 h at 37 °C (BE 500, Memmert GmbH, Büchenbach, Germany). After incubation, the Petri dishes were visually inspected, and the MBC was determined in the absence of growth. IC50 values were interpolated from regressions with correlation values above 0.70. Growth inhibition percentages were calculated as follows: Growth inhibition %=1−AbsPEPTIDE or ANTIBIOTIC−Median AbsBLANK/Median AbsPBS−Median AbsBLANK×100

Substance: WKKIKKFF-NH2 [PvAMP66]
- HC50 (Hemolytic Concentration 50) ([1]; 10% v/v hRBC in PBS pH 7.20, 1 h 37 °C, hemoglobin at 420 nm, 1.56–200 µM, logistic regression, 95% CI in parentheses, three independent assays): 132.96 (118.82–151.21) µM
- hemolysis ([1]; human erythrocytes, highest concentration (200 µM), 1 h 37 °C): 60%
- average MIC [2]: 46.87 µM
- MIC (S. aureus ATCC® 29213; 1.56–200 µM, 24 h 37 °C, visual inspection, triplicate, three independent assays): 25 µM
- MBC (S. aureus ATCC® 29213; plating on Mueller-Hinton agar, absence of growth): 50 µM
